# Data from EP1200395B1, “UREA DERIVATIVES AS INHIBITORS OF CCR-3 RECEPTOR” (KIRIN BEER KABUSHIKI KAISHA, priority 1999, dated 2001).
# Molecular target: T1, CCR-3 (Homo sapiens, UniProt P51677)
# T1 sequence (P51677 1-355): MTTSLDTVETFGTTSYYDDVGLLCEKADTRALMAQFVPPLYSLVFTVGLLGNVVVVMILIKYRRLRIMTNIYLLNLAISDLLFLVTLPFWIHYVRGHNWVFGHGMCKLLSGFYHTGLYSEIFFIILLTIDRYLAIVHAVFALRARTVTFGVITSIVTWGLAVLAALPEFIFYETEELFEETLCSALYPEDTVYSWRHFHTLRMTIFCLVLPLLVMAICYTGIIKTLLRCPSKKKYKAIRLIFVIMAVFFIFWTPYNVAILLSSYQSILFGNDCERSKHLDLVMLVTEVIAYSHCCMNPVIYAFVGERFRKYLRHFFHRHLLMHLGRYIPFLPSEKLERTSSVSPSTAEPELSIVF
# Assay: Eotaxin-induced chemotaxis of CCR-3 transfectant cells (CCR3/U937)
# Type: cell-based
# Set-up: expressed in transfected cells; host or cells: U937
# Conditions: 10 µM test compound; eotaxin 1 x 10^-9 M; CCR3/U937 cells (Table 3a)
row,Chemotaxis Assay 10 µM (inhibition %),Structure (SMILES)
1,94%,CCN(CCCCCNC(=O)Nc1ccccc1)CCc1ccc(Cl)cc1 [Compound 8]
2,100%,O=C(NCCCN(CCCO)C1CCCc2ccccc21)Nc1ccc(Br)cc1 (stereo not drawn) [Compound 216]
3,68%,O=C(O)CCCN(CCCNC(=O)Nc1ccc(Br)cc1)C(Cc1ccccc1)c1ccccc1 (stereo not drawn) [Compound 75]
4,92%,COC(=O)CCCCN(CCCNC(=O)Nc1ccc(Br)cc1)C1CCCc2ccccc21 (stereo not drawn) [Compound 213]
5,100%,COc1cccc(NC(=O)NCCCN(CCCC(=O)O)C2CCCc3ccccc32)c1 (stereo not drawn) [Compound 261]
6,100. %,COC(=O)CCCN(CCCNC(=O)Nc1ccc(Oc2ccccc2)cc1)C1CCCc2ccccc21 (stereo not drawn) [Compound 58]
7,99%,"COC(=O)CCCN(CCCCNC(=O)Nc1ccc(Br)cc1)C1CCCc2ccccc21 (stereo not drawn) [Compound 32, Methyl 4-[[4-(4-bromophenylureido)butyl](1,2,3,4-tetrahydro-1-naphthyl)amino]butylate]"
8,97%,CCOC(=O)c1cccc(NC(=O)NCCCN(CCCC(=O)O)C2CCCc3ccccc32)c1 (stereo not drawn) [Compound 236]
9,96%,COC(=O)CCCN(CCCNC(=O)Nc1ccc(Br)cc1)CCc1ccccc1 [Compound 42]
10,100%,COC(=O)CCCN(CCCNC(=O)Nc1ccc(Br)cc1C)C1CCCc2ccccc21 (stereo not drawn) [Compound 200]
11,75%,CCOC(=O)C1CC1CN(CCCNC(=O)Nc1ccc(Br)cc1)C1CCCc2ccccc21 (stereo not drawn) [Compound 224]
12,100%,COC(=O)CCCN(CCCNC(=O)Nc1ccc(Br)cc1)C1Cc2ccccc2C1 [Compound 174]
13,31%,O=C(O)CCCN(CCCNC(=O)Nc1ccc(Br)cc1)Cc1ccco1 [Compound 68]
14,77%,NC(=O)CN(CCCNC(=O)Nc1ccccc1)CCc1ccc(Cl)cc1 [Compound 220]
15,100%,CCN(CCCNC(=O)Nc1ccccc1Br)C1CCCc2ccccc21 (stereo not drawn) [Compound 191]

# Same assay, conditions: 10 µM test compound; eotaxin 1 x 10^-9 M; CCR3/U937 cells (Table 3c)
row,Chemotaxis Assay 10 µM (inhibition %),Structure (SMILES)
1,100%,CC[N+](CCCNC(=O)Nc1ccc(OC)cc1)(CCc1ccc(Cl)cc1)Cc1ccccc1.[I-] (stereo not drawn) [compound 324]
2,100%,CC[N+](CCCNC(=O)Nc1ccccc1)(CCc1ccc(Cl)cc1)Cc1ccc(OC)cc1.[I-] (stereo not drawn) [compound 344]

# Same assay, conditions: U-937; 10 µM test compound; eotaxin 1 x 10^-9 M; CCR3/U937 cells (Table 3a)
row,inhibition at 10 µM,Structure (SMILES)
1,58%,COc1ccc(CN(CCCNC(=O)Nc2ccccc2)CCc2ccc(Cl)cc2)cc1 [Compound 18]
2,82%,O=C(NCCCN(CCc1ccc(Cl)cc1)Cc1cccnc1)Nc1ccccc1 [Compound 23]
3,100%,"O=C(O)CCCN(CCCNC(=O)Nc1ccc(Br)cc1)[C@@H]1CCCc2ccccc21 [Compound 181, 4-[[3-(4-Bromophenylureido)propyl][(1R)-1,2,3,4-tetrahydro-1-naphthyl]amino]butanoic acid]"

# Same assay, conditions: test compound 0.1 µg/ml; eotaxin 1 x 10^-9 M; CCR3/U937 transfectants; 37 °C, 1 hour
row,Chemotaxis Assay 0.1 µg/ml (inhibition %),Structure (SMILES)
1,93%,C=C(C)C[N+](CC)(CCCNC(=O)Nc1ccccc1)CCc1ccc(Cl)c(Cl)c1.[I-] (stereo not drawn) [compound 425]
2,94%,CC[N+](CCCNC(=O)Nc1ccc(C(F)(F)F)cc1)(CCOCCOC)CCc1cccc(Cl)c1.[I-] (stereo not drawn) [compound 387]
3,70%,CC[N+](CCCNC(=O)Nc1ccc(Cl)c(Cl)c1)(CCOCCOC)CCc1cccc(F)c1.[I-] (stereo not drawn) [compound 360]
4,100%,CC[N+](CCCNC(=O)Nc1ccc(Br)cc1)(CCOCCOC)CCc1ccc(Cl)cc1Cl.[I-] (stereo not drawn) [compound 374]
5,92%,CC[N+](CCF)(CCCNC(=O)Nc1ccc(OC)cc1)CCc1cccc(Cl)c1.[I-] (stereo not drawn) [compound 451]
6,91%,CC[N+](CCCNC(=O)Nc1ccc(Br)cc1)(CCOCCOC)CCc1cccc(F)c1.[I-] (stereo not drawn) [compound 375]
7,81%,C=C(C)C[N+](CC)(CCCNC(=O)Nc1ccc(Br)cc1)CCc1cccc(Cl)c1.[I-] (stereo not drawn) [compound 378]
